{
  "source": "patent US8455475B2",
  "about": "(Gruenenthal GmbH, priority 2009, dated 2013)",
  "data": [
    {"target": "T1, rat B1R (bradykinin receptor 1) (Rattus norvegicus, UniProt P97583)", "T1 construct": "expressed in transfected cells; host or cells: CHO K1 cells", "T1 sequence (P97583 1-337)": "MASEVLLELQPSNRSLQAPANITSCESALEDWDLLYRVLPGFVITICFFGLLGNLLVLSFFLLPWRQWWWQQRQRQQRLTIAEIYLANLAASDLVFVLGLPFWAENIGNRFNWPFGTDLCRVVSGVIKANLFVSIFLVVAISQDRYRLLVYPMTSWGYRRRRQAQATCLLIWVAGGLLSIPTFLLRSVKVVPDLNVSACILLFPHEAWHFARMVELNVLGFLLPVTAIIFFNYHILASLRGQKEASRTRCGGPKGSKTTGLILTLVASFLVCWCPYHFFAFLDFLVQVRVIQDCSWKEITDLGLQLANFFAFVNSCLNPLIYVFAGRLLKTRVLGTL", "assay": "FLIPR Ca2+ assay (Fluo-4) on CHO K1 cells stably transfected with the B1R gene of the rat (rB1R cells): % inhibition at 10 μM / IC50, agonist Des-Arg9-bradykinin", "type": "cell-based", "details": "CHO-K1, rat B1R", "procedure,_shortened": "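Peak fluorescence counts read on FLIPR (λex 488, λem 540 nm) after two additions: compound first, then agonist at EC80 after 10–20 min. Human line challenged with Lys-Des-Arg9-bradykinin, rat line with Des-Arg9-bradykinin. Suppression of Ca2+ inflow expressed as % of maximum inhibition.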", "units": {"inhibition at 10 µM": "%"}, "values": [
      {"molecule": "O=C(NC1CCc2ccc(C(=O)N3CCC4(CCN(Cc5ccc(F)cc5F)CC4)C3)cc21)c1ccccc1Cl", "note": "(centres unmarked) [IND_CC-544, 2-Chloro-N-[6-[8-[(2,4-difluoro-phenyl)-methyl]-2,8-diazaspiro[4.5]decane-2-carbonyl]-2,3-dihydro-1H-inden-1-yl]-benzamide]", "inhibition at 10 µM": 99},
      {"molecule": "COc1cccc(F)c1CN1CCC2(CC1)CCN(C(=O)c1ccc3c(c1)C(N1Cc4c(c5c(Cl)cccc5n4C)C1=O)CC3)C2", "note": "(centres unmarked) [IND_CC-795, 8-Chloro-2-[6-[8-[(2-fluoro-6-methoxy-phenyl)-methyl]-2,8-diazaspiro[4.5]-decane-2-carbonyl]-2,3-dihydro-1H-inden-1-yl]-4-methyl-3,4-dihydro-2H-pyrrolo[3,4-b]indol-1-one]", "inhibition at 10 µM": 54},
      {"molecule": "CCC(C)C(=O)NC1CCc2ccc(C(=O)N3CCC4(CCN(c5ccncc5)CC4)C3)cc21", "note": "(centres unmarked) [IND_CC-417, 2-Methyl-N-[6-(8-pyridin-4-yl-2,8-diazaspiro[4.5]decane-2-carbonyl)-2,3-dihydro-1H-inden-1-yl]-butyramide]", "inhibition at 10 µM": 102},
      {"molecule": "O=C(c1ccc2c(c1)C(NS(=O)(=O)c1cc(Cl)c(Cl)cc1Cl)CC2)N1CCC2(CC1)CCN(c1ccncc1)C2", "note": "(centres unmarked) [IND_CC-363, 2,4,5-Trichloro-N-[6-(2-pyridin-4-yl-2,8-diazaspiro[4.5]decane-8-carbonyl)-2,3-dihydro-1H-inden-1-yl]-benzenesulfonic acid amide]", "inhibition at 10 µM": 74},
      {"molecule": "CN(C(=O)c1ccc(F)cc1C(F)(F)F)C1CCc2ccc(C(=O)N3CCC4(CC3)CCN(c3ccncc3)CC4)cc21", "note": "(centres unmarked) [IND_CC-380, 4-Fluoro-N-methyl-N-[6-(9-pyridin-4-yl-3,9-diazaspiro[5.5]undecane-3-carbonyl)-2,3-dihydro-1H-inden-1-yl]-2-(trifluoromethyl)-benzamide]", "inhibition at 10 µM": 103},
      {"molecule": "O=C(Nc1c(Cl)cccc1Cl)N1CCC2(CC1)CCN(C(=O)c1ccc3c(c1)C(N(C(=O)c1ccccc1Cl)C1CC1)CC3)C2", "note": "(centres unmarked) [IND_CC-718, 2-[3-[(2-Chloro-benzoyl)-cyclopropyl-amino]-2,3-dihydro-1H-indene-5-carbonyl]-N-(2,6-dichloro-phenyl)-2,8-diazaspiro[4.5]decane-8-carboxylic acid amide]", "inhibition at 10 µM": 52},
      {"molecule": "Cc1noc(C)c1CN1CCC2(CC1)CCN(C(=O)c1ccc3c(c1)C(NC(=O)c1cc(C(F)(F)F)ccc1Cl)CC3)C2", "note": "(centres unmarked) [IND_CC-657, 2-Chloro-N-[6-[8-[(3,5-dimethyl-isoxazol-4-yl)-methyl]-2,8-diazaspiro[4.5]-decane-2-carbonyl]-2,3-dihydro-1H-inden-1-yl]-5-(trifluoromethyl)-benzamide]", "inhibition at 10 µM": 66},
      {"molecule": "CC(C)CN1CCC2(CC1)CCN(C(=O)c1ccc3c(c1)C(NC(=O)c1c(F)cccc1Cl)CC3)C2", "note": "(centres unmarked) [IND_CC-777, 2-Chloro-6-fluoro-N-[6-[8-(2-methyl-propyl)-2,8-diazaspiro[4.5]decane-2-carbonyl]-2,3-dihydro-1H-inden-1-yl]-benzamide]", "inhibition at 10 µM": 83},
      {"molecule": "O=C(NC1CCc2ccc(C(=O)N3CCC4(CCN(CCCc5ccc(F)cc5)CC4)C3)cc21)c1cc(Cl)ccc1F", "note": "(centres unmarked) [IND_CC-675, 5-Chloro-2-fluoro-N-[6-[8-[3-(4-fluorophenyl)-propyl]-2,8-diazaspiro[4.5]decane-2-carbonyl]-2,3-dihydro-1H-inden-1-yl]-benzamide]", "inhibition at 10 µM": 87},
      {"molecule": "CN(C(=O)c1c(F)cccc1F)C1CCc2ccc(C(=O)N3CCC4(CC3)CCN(c3ccncc3)CC4)cc21", "note": "(centres unmarked) [IND_CC-384, 2,6-Difluoro-N-methyl-N-[6-(9-pyridin-4-yl-3,9-diazaspiro[5.5]undecane-3-carbonyl)-2,3-dihydro-1H-inden-1-yl]-benzamide]", "inhibition at 10 µM": 104},
      {"molecule": "COc1ccc(CN2CCC3(CC2)CCN(C(=O)c2ccc4c(c2)C(NC(=O)c2cc(Cl)ccc2F)CC4)C3)cc1F", "note": "(centres unmarked) [IND_CC-623, 5-Chloro-2-fluoro-N-[6-[8-[(3-fluoro-4-methoxy-phenyl)-methyl]-2,8-diazaspiro[4.5]decane-2-carbonyl]-2,3-dihydro-1H-inden-1-yl]-benzamide]", "inhibition at 10 µM": 59},
      {"molecule": "CC(C)CN1CCC2(CC1)CCN(C(=O)c1ccc3c(c1)C(NC(=O)c1cccc(Cl)c1Cl)CC3)CC2", "note": "(centres unmarked) [IND_CC-757, 2,3-Dichloro-N-[6-[9-(2-methyl-propyl)-3,9-diazaspiro[5.5]undecane-3-carbonyl]-2,3-dihydro-1H-inden-1-yl]-benzamide]", "inhibition at 10 µM": 52},
      {"molecule": "O=C(NC1CCc2ccc(C(=O)N3CCC4(CCN(C(=O)NCc5ccccc5)CC4)CC3)cc21)c1ccccc1Cl", "note": "(centres unmarked) [IND_CC-706, N-Benzyl-3-[3-[(2-chloro-benzoyl)amino]-2,3-dihydro-1H-indene-5-carbonyl]-3,9-diazaspiro[5.5]undecane-9-carboxylic acid amide]", "inhibition at 10 µM": 103},
      {"molecule": "Cn1nnc2cc(CN3CCC4(CC3)CCN(C(=O)c3ccc5c(c3)C(NC(=O)c3cc(Cl)ccc3F)CC5)C4)ccc21", "note": "(centres unmarked) [IND_CC-673, 5-Chloro-2-fluoro-N-[6-[8-[(1-methyl-1H-benzotriazol-5-yl)-methyl]-2,8-diazaspiro[4.5]decane-2-carbonyl]-2,3-dihydro-1H-inden-1-yl]-benzamide]", "inhibition at 10 µM": 67},
      {"molecule": "O=C(NC1CCc2ccc(C(=O)N3CCC4(CCN(Cc5c(F)cccc5F)CC4)C3)cc21)c1ccccc1Cl", "note": "(centres unmarked) [IND_CC-504, 2-Chloro-N-[6-[8-[(2,6-difluoro-phenyl)-methyl]-2,8-diazaspiro[4.5]decane-2-carbonyl]-2,3-dihydro-1H-inden-1-yl]-benzamide]", "inhibition at 10 µM": 51},
      {"molecule": "O=C(c1ccc2c(c1)C(NS(=O)(=O)c1c(Cl)cc(C(F)(F)F)cc1Cl)CC2)N1CCC2(CCN(c3ccncc3)CC2)C1", "note": "(centres unmarked) [IND_CC-404, 2,6-Dichloro-N-[6-(8-pyridin-4-yl-2,8-diazaspiro[4.5]decane-2-carbonyl)-2,3-dihydro-1H-inden-1-yl]-4-(trifluoromethyl)-benzenesulfonic acid amide]", "inhibition at 10 µM": 92},
      {"molecule": "O=C(NC1CCc2ccc(C(=O)N3CCC4(CCN(Cc5ccc[nH]5)CC4)CC3)cc21)c1cc(C(F)(F)F)ccc1Cl", "note": "(centres unmarked) [IND_CC-638, 2-Chloro-N-[6-[9-(1H-pyrrol-2-yl-methyl)-3,9-diazaspiro[5.5]undecane-3-carbonyl]-2,3-dihydro-1H-inden-1-yl]-5-(trifluoromethyl)-benzamide]", "inhibition at 10 µM": 80},
      {"molecule": "CC1(C)Cc2ccc(C(=O)N3CCC4(CC3)CCN(c3ccncc3)CC4)cc2C1NC(=O)c1cc(Cl)ccc1C(F)(F)F", "note": "(centres unmarked) [IND_CC-314, 5-Chloro-N-[2,2-dimethyl-6-(9-pyridin-4-yl-3,9-diazaspiro[5.5]undecane-3-carbonyl)-1,3-dihydro-inden-1-yl]-2-(trifluoromethyl)-benzamide]", "inhibition at 10 µM": 80},
      {"molecule": "O=C(NC1CCc2ccc(C(=O)N3CCC4(CCN(Cc5ccc6ncccc6c5)CC4)C3)cc21)c1c(F)cccc1Cl", "note": "(centres unmarked) [IND_CC-774, 2-Chloro-6-fluoro-N-[6-[8-(quinolin-6-yl-methyl)-2,8-diazaspiro[4.5]decane-2-carbonyl]-2,3-dihydro-1H-inden-1-yl]-benzamide]", "inhibition at 10 µM": 81},
      {"molecule": "COc1cc(C)c(C(=O)NC2CCc3ccc(C(=O)N4CCC5(CCN(C(=O)c6cc(C(C)(C)C)nn6C)CC5)C4)cc32)c(C)c1", "note": "(centres unmarked) [IND_CC-580, N-[6-[8-(5-tert-Butyl-2-methyl-2H-pyrazole-3-carbonyl)-2,8-diazaspiro[4.5]decane-2-carbonyl]-2,3-dihydro-1H-inden-1-yl]-4-methoxy-2,6-dimethyl-benzamide]", "inhibition at 10 µM": 81},
      {"molecule": "COc1ccc(C(=O)NC2CCc3ccc(C(=O)N4CCC5(CC4)CCN(c4ccncc4)C5)cc32)c(F)c1", "note": "(centres unmarked) [IND_CC-298, 2-Fluoro-4-methoxy-N-[6-(2-pyridin-4-yl-2,8-diazaspiro[4.5]decane-8-carbonyl)-2,3-dihydro-1H-inden-1-yl]-benzamide]", "inhibition at 10 µM": 74},
      {"molecule": "Cc1nc(CN2CCC3(CC2)CCN(C(=O)c2ccc4c(c2)C(NC(=O)c2c(C)cccc2Cl)CC4)C3)c[nH]1", "note": "(centres unmarked) [IND_CC-728, 2-Chloro-6-methyl-N-[6-[8-[(2-methyl-1H-imidazol-4-yl)-methyl]-2,8-diazaspiro[4.5]decane-2-carbonyl]-2,3-dihydro-1H-inden-1-yl]-benzamide]", "inhibition at 10 µM": 58},
      {"molecule": "O=C(NC1CCc2ccc(C(=O)N3CCC4(CCN(Cc5ccc(F)cc5Cl)CC4)CC3)cc21)c1c(F)cccc1Cl", "note": "(centres unmarked) [IND_CC-802, 2-Chloro-N-[6-[9-[(2-chloro-4-fluoro-phenyl)-methyl]-3,9-diazaspiro-[5.5]undecane-3-carbonyl]-2,3-dihydro-1H-inden-1-yl]-6-fluoro-benzamide]", "inhibition at 10 µM": 89},
      {"molecule": "CN(C1CCc2ccc(C(=O)N3CCC4(CC3)CCN(c3ccncc3)CC4)cc21)S(=O)(=O)c1ccc(Br)cc1Cl", "note": "(centres unmarked) [IND_CC-405, 4-Bromo-2-chloro-N-methyl-N-[6-(9-pyridin-4-yl-3,9-diazaspiro[5.5]undecane-3-carbonyl)-2,3-dihydro-1H-inden-1-yl]-benzenesulfonic acid amide]", "inhibition at 10 µM": 96},
      {"molecule": "CN(C1CCc2ccc(C(=O)N3CCC4(CC3)CCN(c3ccncc3)CC4)cc21)S(=O)(=O)c1cccc(C(F)(F)F)c1", "note": "(centres unmarked) [IND_CC-327, N-Methyl-N-[6-(9-pyridin-4-yl-3,9-diazaspiro[5.5]undecane-3-carbonyl)-2,3-dihydro-1H-inden-1-yl]-3-(trifluoromethyl)-benzenesulfonic acid amide]", "inhibition at 10 µM": 101},
      {"molecule": "Cn1nc(C(C)(C)C)cc1C(=O)N1CCC2(CCN(C(=O)c3ccc4c(c3)C(NC(=O)c3sccc3Cl)CC4)C2)CC1", "note": "(centres unmarked) [IND_CC-587, N-[6-[8-(5-tert-Butyl-2-methyl-2H-pyrazole-3-carbonyl)-2,8-diazaspiro[4.5]-decane-2-carbonyl]-2,3-dihydro-1H-inden-1-yl]-3-chloro-thiophene-2-carboxylic acid amide]", "inhibition at 10 µM": 71}
    ]}
  ]
}
